From ChEMBL document CHEMBL1151469, “Cytotoxic activity of N-chlorotaurine on Acanthamoeba spp” (Antimicrob Agents Chemother, 2008)
The source made the active and inactive calls. The rule behind the calls is not given here.

Tests used:
Acanthamoeba castellanii [1] = test: Amoebicidal activity against Trophozoites of Acanthamoeba castellanii 4CL assessed as log reduction in cell count at 10 mM in phosphate buffered saline at pH 7 after 6 hrs by hemocytometer using trypan blue stain; type: functional
Acanthamoeba polyphaga [2] = test: Amoebicidal activity against Trophozoites of Acanthamoeba polyphaga 5SU assessed as log reduction in cell count at 10 mM in phosphate buffered saline at pH 5 after 1 hr by hemocytometer using trypan blue staining; type: functional, organism-based
Acanthamoeba polyphaga [3] = test: Amoebicidal activity against Trophozoites of Acanthamoeba polyphaga 5SU assessed as reduction in killing time at 10 mM in phosphate buffered saline at pH 5 by hemocytometer using trypan blue stain in presence of 160 mM beta-alanine; type: functional, organism-based
Acanthamoeba castellanii [4] = test: Amoebicidal activity against Trophozoites of Acanthamoeba castellanii 40AB assessed as log reduction in cell count at 10 mM in phosphate buffered saline at pH 7 after 6 hrs by hemocytometer using trypan blue stain; type: functional
Acanthamoeba hatchetti [5] = test: Amoebicidal activity against excysted trophozoites of Acanthamoeba hatchetti 11DS at 55 mM in peptone yeast extract glucose medium after 4 days by hemocytometer using trypan blue stain; type: functional
Acanthamoeba castellanii [6] = test: Amoebicidal activity against Trophozoites of Acanthamoeba castellanii 4CL assessed as log reduction in cell count at 20 mM in peptone yeast extract glucose medium at pH 7 after 24 hrs by hemocytometer using trypan blue stain; type: functional
Acanthamoeba polyphaga [7] = test: Amoebicidal activity against Trophozoites of Acanthamoeba polyphaga 5SU assessed as killing time at 0.16 M in peptone yeast extract glucose medium at pH 7 by hemocytometer using trypan blue stain; type: functional
Acanthamoeba hatchetti [8] = test: Amoebicidal activity against Trophozoites of Acanthamoeba hatchetti 11DS assessed as killing time at 55 mM in phosphate buffered saline at pH 7 by hemocytometer using trypan blue stain; type: functional
Acanthamoeba hatchetti [9] = test: Amoebicidal activity against Trophozoites of Acanthamoeba hatchetti 11DS assessed as complete killing time at 55 mM in phosphate buffered saline at pH 7 after 3 hrs by hemocytometer using trypan blue stain in presence of 190 mM ammonium chloride; type: functional, organism-based
Acanthamoeba hatchetti [10] = test: Amoebicidal activity against Trophozoites of Acanthamoeba hatchetti 11DS assessed as reduction of killing time at 10 mM in phosphate buffered saline at pH 5 by hemocytometer using trypan blue stain in presence of 34 mM ammonium chloride; type: functional, organism-based
Acanthamoeba hatchetti [11] = test: Amoebicidal activity against Trophozoites of Acanthamoeba hatchetti 11DS assessed as log reduction in cell count at 20 mM in peptone yeast extract glucose medium at pH 7 after 6 hrs by hemocytometer using trypan blue stain; type: functional, organism-based
Acanthamoeba hatchetti [12] = test: Amoebicidal activity against Trophozoites of Acanthamoeba hatchetti 11DS assessed as reduction of killing time at 10 mM in phosphate buffered saline at pH 5 by hemocytometer using trypan blue stain in presence of 160 mM beta-alanine; type: functional
Acanthamoeba hatchetti [13] = test: Amoebicidal activity against Trophozoites of Acanthamoeba hatchetti 11DS in phosphate buffered saline at pH 7 after 6 hrs by hemocytometer using trypan blue stain in presence of 34 mM ammonium chloride; type: functional, organism-based
Acanthamoeba hatchetti [14] = test: Amoebicidal activity against Trophozoites of Acanthamoeba hatchetti 11DS assessed as killing time at 10 mM in phosphate buffered saline at pH 7 by hemocytometer using trypan blue stain; type: functional
Acanthamoeba castellanii [15] = test: Amoebicidal activity against excysted trophozoites of Acanthamoeba castellanii 40AB at 55 mM in peptone yeast extract glucose medium after 6 days by hemocytometer using trypan blue stain; type: functional
Acanthamoeba hatchetti [16] = test: Amoebicidal activity against Trophozoites of Acanthamoeba hatchetti 11DS in phosphate buffered saline at pH 7 after 24 hrs by hemocytometer using trypan blue stain; type: functional, organism-based
Acanthamoeba hatchetti [17] = test: Amoebicidal activity against Trophozoites of Acanthamoeba hatchetti 11DS at 55 mM in phosphate buffered saline at pH 7 after 1 hr by hemocytometer using trypan blue staining in presence of 190 mM ammonium chloride; type: functional, organism-based
Acanthamoeba polyphaga [18] = test: Amoebicidal activity against Trophozoites of Acanthamoeba polyphaga 5SU in peptone yeast extract glucose medium at pH 7 after 1 hr by hemocytometer using trypan blue stain in presence of 68 mM ammonium chloride; type: functional, organism-based
Acanthamoeba hatchetti [19] = test: Amoebicidal activity against Trophozoites of Acanthamoeba hatchetti 11DS assessed as log reduction in cell count at 10 mM in phosphate buffered saline at pH 5 after 24 hrs by hemocytometer using trypan blue stain; type: functional, organism-based
Acanthamoeba hatchetti [20] = test: Amoebicidal activity against Trophozoites of Acanthamoeba hatchetti 11DS in phosphate buffered saline at pH 7 after 1 hr by hemocytometer using trypan blue stain in presence of 34 mM ammonium chloride; type: functional, organism-based
Acanthamoeba hatchetti [21] = test: Amoebicidal activity against Trophozoites of Acanthamoeba hatchetti 11DS assessed as killing time at 10 mM in phosphate buffered saline at pH 5 by hemocytometer using trypan blue stain in presence of 290 mM ammonium chloride; type: functional
Acanthamoeba hatchetti [22] = test: Amoebicidal activity against Trophozoites of Acanthamoeba hatchetti 11DS assessed as rounding of the cells at 0.16 M in peptone yeast extract glucose medium at pH 7 by hemocytometer using trypan blue stain; type: functional, organism-based
Acanthamoeba polyphaga [23] = test: Amoebicidal activity against Trophozoites of Acanthamoeba polyphaga 5SU assessed as log reduction in cell count at 10 mM in phosphate buffered saline at pH 5 after 6 hrs by hemocytometer using trypan blue stain in presence of 34 mM ammonium chloride; type: functional, organism-based
Acanthamoeba hatchetti [24] = test: Amoebicidal activity against Trophozoites of Acanthamoeba hatchetti 11DS in phosphate buffered saline at pH 7 after 6 hrs by hemocytometer using trypan blue stain; type: functional, organism-based
Acanthamoeba polyphaga [25] = test: Amoebicidal activity against Trophozoites of Acanthamoeba polyphaga 5SU in phosphate buffered saline at pH 7 after 1 hr by hemocytometer using trypan blue stain in presence of 34 mM ammonium chloride; type: functional, organism-based
Acanthamoeba hatchetti [26] = test: Amoebicidal activity against Trophozoites of Acanthamoeba hatchetti 11DS assessed as log reduction in cell count at 10 mM in phosphate buffered saline at pH 5 after 24 hrs by hemocytometer using trypan blue stain in presence of 34 mM ammonium chloride; type: functional, organism-based
Acanthamoeba polyphaga [27] = test: Amoebicidal activity against Trophozoites of Acanthamoeba polyphaga 5SU assessed as complete killing time at 55 mM in phosphate buffered saline at pH 7 after 6 hrs by hemocytometer using trypan blue stain in presence of 190 mM ammonium chloride; type: functional, organism-based
Acanthamoeba castellanii [28] = test: Amoebicidal activity against excysted trophozoites of Acanthamoeba castellanii 40AB at 55 mM in peptone yeast extract glucose medium after 11 days by hemocytometer using trypan blue stain; type: functional
Acanthamoeba polyphaga [29] = test: Amoebicidal activity against Trophozoites of Acanthamoeba polyphaga 5SU assessed as prevention of sporadic cysts formation at 55 mM in phosphate buffered saline at pH 7 by hemocytometer using trypan blue stain; type: functional, organism-based
Acanthamoeba polyphaga [30] = test: Amoebicidal activity against Trophozoites of Acanthamoeba polyphaga 5SU assessed as log reduction in cell count at 20 mM in peptone yeast extract glucose medium at pH 7 after 24 hrs by hemocytometer using trypan blue stain; type: functional
Acanthamoeba polyphaga [31] = test: Amoebicidal activity against Trophozoites of Acanthamoeba polyphaga 5SU assessed as rounding of cells at 55 mM in phosphate buffered saline at pH 7 after 15 mins by hemocytometer using trypan blue stain; type: functional, organism-based
Acanthamoeba polyphaga [32] = test: Amoebicidal activity against Trophozoites of Acanthamoeba polyphaga 5SU assessed as log reduction in cell count at 10 mM in phosphate buffered saline at pH 5 after 1 hr by hemocytometer using trypan blue stain in presence of 34 mM ammonium chloride; type: functional, organism-based

With `O=S(=O)(O)CCNCl` the Activity (Acanthamoeba castellanii [1]) was 2, the Activity (Acanthamoeba polyphaga [2]) was “Active” and the Activity (Acanthamoeba polyphaga [3]) was “inactive”. For the same compound, the Activity (Acanthamoeba castellanii [4]) was 2, the Activity (Acanthamoeba hatchetti [5]) was 100000 and the Activity (Acanthamoeba castellanii [6]) was 2. For the same compound, the Activity (Acanthamoeba polyphaga [7]) was 30 min, the Activity (Acanthamoeba hatchetti [8]) was 30 min and the Activity (Acanthamoeba hatchetti [9]) was “Active”. For the same compound, the Activity (Acanthamoeba hatchetti [10]) was “inactive”, the Activity (Acanthamoeba hatchetti [11]) was “Active” and the Activity (Acanthamoeba hatchetti [12]) was 15 h. It also gave an EC50 (Acanthamoeba hatchetti [13]) of 5.19 mM, an EC90 (Acanthamoeba hatchetti [13]) of 9.13 mM and an Activity (Acanthamoeba hatchetti [14]) of 30 h. The Activity (Acanthamoeba castellanii [15]) was 38000, the EC50 (Acanthamoeba hatchetti [16]) was 3.65 mM and the EC90 (Acanthamoeba hatchetti [16]) was 7.56 mM. For the same compound, the Activity (Acanthamoeba hatchetti [17]) was “inactive”, the EC50 (Acanthamoeba polyphaga [18]) was 16.6 mM and the Activity (Acanthamoeba hatchetti [19]) was “Active”. For the same compound, the EC50 (Acanthamoeba hatchetti [20]) was 12.9 mM, the Activity (Acanthamoeba hatchetti [21]) was 24 h and the Activity (Acanthamoeba hatchetti [22]) was “Active”. The Activity (Acanthamoeba polyphaga [23]) was “Active”, the EC50 (Acanthamoeba hatchetti [24]) was 3.89 mM and the EC90 (Acanthamoeba hatchetti [24]) was 7.71 mM. The EC50 (Acanthamoeba polyphaga [25]) was 5.31 mM, the EC90 (Acanthamoeba polyphaga [25]) was 9.5 mM and the Activity (Acanthamoeba hatchetti [26]) was “inactive”. For the same compound, the Activity (Acanthamoeba polyphaga [27]) was “Active”, the Activity (Acanthamoeba castellanii [28]) was 130000 and the Activity (Acanthamoeba polyphaga [29]) was “inactive”. For the same compound, the Activity (Acanthamoeba polyphaga [30]) was 2, the Activity (Acanthamoeba polyphaga [31]) was “Active” and the Activity (Acanthamoeba polyphaga [32]) was “Active”.
